According to ChEMBL document CHEMBL3352622, “Folded structure and insertion depth of the frog-skin antimicrobial Peptide esculentin-1b(1-18) in the presence of differently charged membrane-mimicking micelles” (J Nat Prod, 2014):
Active and inactive are the calls of the source. The rule behind the calls is not given here. Where a SMILES comes first, the peptide text is derived from it.

Tested on: Human alphaherpesvirus 1
Assay: Antiviral activity against HSV-1 assessed as reduction in infectivity in African green monkey Vero cells after 2 hrs by virus yield reduction assay
Type: functional, organism-based

SMILES: CC[C@H](C)[C@H](NC(=O)CN)C(=O)N[C@@H](Cc1ccccc1)C(=O)N[C@@H](CO)C(=O)N[C@@H](CCCCN)C(=O)N[C@@H](CC(C)C)C(=O)N[C@@H](C)C(=O)NCC(=O)N[C@@H](CCCCN)C(=O)N[C@@H](CCCCN)C(=O)N[C@@H](CC(C)C)C(=O)N[C@@H](CCCCN)C(=O)N[C@@H](CC(N)=O)C(=O)N[C@@H](CC(C)C)C(=O)N[C@@H](CC(C)C)C(=O)N[C@H](C(=O)N[C@@H](CO)C(=O)NCC(N)=O)[C@@H](C)CC (H-GIFSKLAGKKLKNLLISG-NH2)
- Activity: inactive
